In patent US5591752A, “Quinoline derivative” (Ube Industries, Ltd., priority 1993, dated 1997):
Where two headings read alike, the source gives them in different places.

Biological target: T1, Leukotriene D4 (LTD4) receptor (Cavia porcellus, UniProt Q2NNR5)
T1 construct: lung cell membrane fractions of guinea pigs were used; from tissue; host or cells: lung membrane fractions of Hartley strain male guinea pigs
T1 sequence (Q2NNR5 1-340): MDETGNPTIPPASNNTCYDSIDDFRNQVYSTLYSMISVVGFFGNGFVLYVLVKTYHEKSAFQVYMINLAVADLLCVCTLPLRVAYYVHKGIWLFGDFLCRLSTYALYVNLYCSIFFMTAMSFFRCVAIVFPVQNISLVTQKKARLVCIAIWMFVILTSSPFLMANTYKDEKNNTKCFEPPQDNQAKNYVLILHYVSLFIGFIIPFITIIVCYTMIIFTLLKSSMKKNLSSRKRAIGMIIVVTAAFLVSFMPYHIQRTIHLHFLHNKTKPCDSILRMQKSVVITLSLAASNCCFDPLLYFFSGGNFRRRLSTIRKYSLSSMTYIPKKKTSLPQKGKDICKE
Assay: Leukotriene D4 receptor binding test ([3H]ICI-198615 displacement, lung cell membrane fractions)
Details: guinea pig lung membranes, [3H]ICI-198615 about 0.2 nM, pKi=-log Ki
Experimental: Leukotriene D4 receptor binding test
<Preparation of receptor samples>
As receptor samples, lung cell membrane fractions of guinea pigs were used. The membrane fractions were prepared according to the method of Ahn et al. (Ahn, H. S. & Barnett, A. (1986) Eur. J. Pharmacol., 127, 153.). After Hartley strain male guinea pigs (body weight: 400 to 500 g, supplied by Nihon SLC Co.) were killed by exsanguination, lungs were extracted and perfused with a physiological saline solution (Otsuka Seiyaku) from lung arteries. The extracted lungs were cut into pieces immediately or after the lungs were stored by freezing them at -80 ° C. A 10-fold amount of a buffer solution (pH 7.4) of 10 mM PIPES, 10 mM MgCl2, 10 mM CaCl2 and 50 mM NaCl was added thereto and the mixtures were made suspensions by a homogenizer (manufactured by Yamato Co., LP-41C Model). After the suspensions were filtered with gauze, the filtrates were centrifuged by an ultracentrifuge (manufactured by Hitachi Co., 70P-72 Model) with 50,000 g for 10 minutes, whereby membrane fractions were deposited. The membrane fractions were washed twice and then suspended in the same buffer solution to obtain receptor samples. Measurement of a protein concentration was conducted by the Lowry method (Lowry, O, H. et al. (1951) J. Biol. Chem., 193,265.) by using bovine serum albumin as a standard protein. The samples prepared (protein amount: 10 to 25 mg/ml) were stored by freezing them at -80° C. and used for experiments.
<Leukotriene D4 receptor binding test>
The leukotriene D4 (LTD4) receptor binding test was conducted according to the method of O'Sullivan et al. (O'Sullivan, B. P. & Mong, S. (1989) Mol. Pharmacol., 35, 795.). The receptor samples were diluted with a buffer solution (pH 7.4) of 10 mM PIPES, 10 mM MgCl2, 10 mM CaCl2 and 50 mM NaCl and 0.42 mg/ml in terms of a protein amount was used. As a labeling compound, [^3 H]ICI-198615 (produced by Du Pont Co., 60 Ci/mmol) which specifically binds to the LTD4 receptor was used. [^3 H]ICI-198615 and a compound to be tested were dissolved in dimethylsulfoxide and a 1/50 amount (2% by volume) of the solution was added to the receptor-diluted solutions, respectively. 500 μl of each reaction mixture was incubated at 25° C. for 40 minutes and then filtered with a glass fiber filter (Whatman, GF/B type) by using a cell harvester (manufactured by Brandel Co., M-30R Model). The filters were washed with 10 ml of an ice-cooled 100 mM NaCl-50 mM phosphate buffer solution (pH 7.5) and subjected to ultrasonic treatment in 9 ml of a liquid scintillator (manufactured by Nacalai Tesque, Co., Clear sol I) for 2 minutes. Thereafter, radioactivity was measured by a liquid scintillation counter (manufactured by Packard Co., 2000 CA Model). In a test of determining a dissociation constant of ICI-198615, 0.1 to 2 nM [^3 H]ICI-198615 and 10 μM non-radioactive ICI-198615 were used. In a test of determining inhibition constants of the respective compounds to be tested, [^3 H]ICI-198615 having a concentration of about 0.2 nM and the compounds each having a concentration of 0.1 pM to 0.1 mM were used.
<Data analysis of receptor binding test>
The dissociation constant (Kd) of ICI-198615 and the binding inhibition constants (Ki) of the respective compounds to be tested were determined by the following numerical formulae (A), (B) and (C).
wherein B: a concentration of a label [3H] which is bound to a receptor, Bmax: a maximum receptor-binding concentration of a label [^3 H], F: a concentration of a label [^3 H] which is not bound to a receptor, [L]: a concentration of a label [^3 H], IC50 : a concentration of a compound which inhibits 50% of binding of a label [^3 H] to a receptor and pKi: a logarithm, of a reciprocal of Ki.

[1] = read-out: pKi value (converted)

Row | SMILES | Ki (pKi value) [nM] | Ki [1] [nM]
1 | O=C(O)CCSC1c2ccccc2COc2ccc(OCc3ccc4ccc(Cl)cc4n3)cc21 (single isomer, unassigned; (+)) [Example 52, (+)-11-(2-Carboxyethylthio)-2-(7-chloroquinolin-2-yl)methoxy-6,11-dihydrodibenz[b,e]oxepine] | 0.316 | 
2 | O=C(O)CCSC1c2ccccc2COc2ccc(OCc3ccc4cc(F)c(Cl)cc4n3)cc21 (single isomer, unassigned; (-)) [Example 51, (-)-11-(2-Carboxyethylthio)-2-(7-chloro-6-fluoroquinolin-2-yl)methoxy-6,11-dihydrodibenz[b,e]oxepine] | 1.26 | 
3 | O=C(O)CCSC1c2ccccc2COc2ccc(OCc3ccc4ccc(Cl)cc4n3)cc21 (single isomer, unassigned; (-)) [Example 53, (-)-11-(2-Carboxyethylthio)-2-(7-chloroquinolin-2-yl)-methoxy-6,11-dihydrodibenz[b,e]oxepine] | 3.98 | 
4 | O=C(O)CCSC1c2ccccc2COc2ccc(OCc3ccc4cc(Cl)ccc4n3)cc21 (stereo not drawn) [Example 5, 11-(2-Carboxyethylthio)-2-(6-chloroquinolin-2-yl)methoxy-6,11-dihydrodibenz[b,e]oxepine] | 3.16 | 
5 | Cc1cccc2c1C(SCCC(=O)O)c1cc(OCc3ccc4ccc(Cl)cc4n3)ccc1OC2 (stereo not drawn) [Example 12, 11-(2-Carboxyethylthio)-2-(7-chloroquinolin-2-yl)methoxy-10-methyl-6,11-dihydrodibenz[b,e]oxepine] | 5.01 | 
6 | O=C(O)CCSC1c2ccc(Br)cc2COc2ccc(OCc3ccc4ccc(Cl)cc4n3)cc21 (stereo not drawn) [Example 14, 8-Bromo-11-(2-carboxyethylthio)-2-(7-chloroquinolin-2-yl)-methoxy-6,11-dihydrodibenz[b,e]oxepine] | 3.16 | 
7 | N#Cc1cccc2c1COc1ccc(OCc3ccc4ccc(Cl)cc4n3)cc1C2SCCC(=O)O (stereo not drawn) [Example 15, 11-(2-Carboxyethylthio)-2-(7-Chloroquinolin-2-yl)methoxy-7-cyano-6,11-dihydrodibenz[b,e]oxepine] | 0.631 | 
8 | O=C(O)CCSC1c2ccc(SCC(=O)O)cc2COc2ccc(OCc3ccc4ccc(Cl)cc4n3)cc21 (stereo not drawn) [Example 16, 11-(2-Carboxyethylthio)-8-carboxymethylthio-2-(7-chloroquinolin-2-yl)methoxy-6,11-dihydrodibenz[b,e]oxepine] | 0.631 | 
9 | O=C(O)CCSC1c2ccc(-c3nn[nH]n3)cc2COc2ccc(OCc3ccc4ccccc4n3)cc21 (stereo not drawn) [Example 17, 11-(2-Carboxyethylthio)-2-(quinolin-2-yl)methoxy-8-(tetrazol-5-yl)-6,11-dihydrodibenz[b,e]oxepine] | 1.58 | 
10 | O=C(O)CCSC1c2ccc(-c3nn[nH]n3)cc2COc2ccc(OCc3ccc4ccc(Cl)cc4n3)cc21 (stereo not drawn) [Example 18, 11-(2-Carboxyethylthio)-2-(7-chloroquinolin-2-yl)methoxy-8-(tetrazol-5-yl)-6,11-dihydrodibenz[b,e]oxepine] | 0.2 | 
11 | O=C(O)CCSC1c2cc(OCc3ccc4ccc(Cl)cc4n3)ccc2OCc2c(-c3nn[nH]n3)cccc21 (stereo not drawn) [Example 19, 11-(2-Carboxyethylthio)-2-(7-chloroquinolin-2-yl)methoxy-7-(tetrazol-5-yl)-6,11-dihydrodibenz[b,e]oxepine] | 0.501 | 
12 | NC(=O)c1cccc2c1COc1ccc(OCc3ccc4ccc(Cl)cc4n3)cc1C2SCCC(=O)O (stereo not drawn) [Example 20, 7-Carbamoyl-11-(2-carboxyethylthio)-2-(7-chloroquinolin-2-yl)methoxy-6,11-dihydrodibenz[b,e]oxepine] | 0.631 | 
13 | CC(SC1c2ccccc2COc2ccc(OCc3ccc4ccccc4n3)cc21)C(=O)O (stereo not drawn) [Example 23, 11-(1-Carboxyethylthio)-2-(quinolin-2-yl)methoxy-6,11-dihydrodibenz[b,e]oxepine] |  | 5.01
14 | O=C(O)CCCSC1c2ccccc2COc2ccc(OCc3ccc4ccc(Cl)cc4n3)cc21 (stereo not drawn) [Example 24, 11-(3-Carboxypropylthio)-2-(7-chloroquinolin-2-yl)methoxy-6,11-dihydrodibenz[b,e]oxepine] | 2.51 | 
15 | O=C(O)COC1c2ccccc2COc2ccc(OCc3ccc4ccc(Cl)cc4n3)cc21 (stereo not drawn) [Example 27, 11-Carboxymethoxy-2-(7-chloroquinolin-2-yl)methoxy-6,11-dihydrobenz[b,e]oxepine] |  | 5.01
16 | Clc1ccc2ccc(COc3ccc4c(c3)C(SCCc3nn[nH]n3)c3ccccc3CO4)nc2c1 (stereo not drawn) [Example 30, 2-(7-Chloroquinolin-2-yl)methoxy-11-[2-(tetrazol-5-yl)ethylthio]-6,11-dihydrodibenz[b,e]oxepine] | 2 | 
17 | Clc1ccc2ccc(COc3ccc4c(c3)C(OCCc3nn[nH]n3)c3ccccc3CO4)nc2c1 (stereo not drawn) [Example 31, 2-(7-Chloroquinolin-2-yl)methoxy-11-[2-(tetrazol-5-yl)ethoxy]-6,11-dihydrodibenz[b,e]oxepine] |  | 2
18 | O=C(CSC1c2ccccc2COc2ccc(OCc3ccc4ccc(Cl)cc4n3)cc21)NS(=O)(=O)c1ccccc1 (stereo not drawn) [Example 39, 11-[(Phenylsulfonyl)aminocarbonyl]methylthio-2-(7-chloroquinolin-2-yl)methoxy-6,11-dihydrodibenz[b,e]oxepine] |  | 2
19 | Cc1ccccc1S(=O)(=O)NC(=O)CCSC1c2ccccc2COc2ccc(OCc3ccc4ccc(Cl)cc4n3)cc21 (stereo not drawn) [Example 40, 2-(7-Chloroquinolin-2-yl)methoxy-11-[2-[(2-methylphenylsulfonyl)aminocarbonyl]ethylthio]-6,11-dihydrodibenz[B,e]oxepine] |  | 2.51
20 | O=C(CSC1c2ccccc2COc2ccc(OCc3ccc4ccccc4n3)cc21)NS(=O)(=O)c1ccccc1 (stereo not drawn) [Example 41, 11-[(Phenylsulfonyl)aminocarbonyl]methylthio-2-(quinolin-2-yl)methoxy-6,11-dihydrodibenz[b,e]oxepine] |  | 1.26
21 | CC(=O)CCc1ccc2c(c1)COc1ccc(OCc3ccc4cc(F)c(Cl)cc4n3)cc1C2SCCC(=O)O (stereo not drawn) [Example 48, 11-(2-Carboxyethylthio)-2-(7-chloro-6-fluoroquinolin-2-yl)methoxy-8-(2-acetylethyl)-6,11-dihydrodibenz[b,e]oxepine] | 0.2 | 
